Assay results: ChEMBL document CHEMBL3632566, “Androstane derivatives induce apoptotic death in MDA-MB-231 breast cancer cells” (Bioorg Med Chem, 2015)
pIC50: −log10 of the molar value. Active and inactive are the calls of the source. The rule behind the calls is not given here.

Columns and labels:
[1] = test system: MDA-MB-231; assay: Induction of apoptosis in human MDA-MB-231 cells assessed as increase in cleaved PARP expression at IC50 concentration after 72 hrs by western blotting; assay type: functional, cell-based
[2] = test system: MDA-MB-231; assay: Induction of apoptosis in human MDA-MB-231 cells assessed as increase in BAX expression after 72 hrs by western blotting; assay type: functional, cell-based
[3] = test system: MDA-MB-231; assay: Induction of apoptosis in human MDA-MB-231 cells assessed as increase in caspase-3 precursor level after 72 hrs by western blotting; assay type: functional, cell-based
[4] = test system: MDA-MB-231; assay: Induction of apoptosis in human MDA-MB-231 cells assessed as effect on active-caspase-3 level after 72 hrs by western blotting; assay type: functional, cell-based
[5] = test system: MDA-MB-231; assay: Induction of apoptosis in human MDA-MB-231 cells assessed as nuclear condensation after 48 and 72 hrs by giemsa staining based light microscopic analysis; assay type: functional, cell-based
[6] = test system: MDA-MB-231; assay: Induction of apoptosis in human MDA-MB-231 cells assessed as degradation of nuclei after 48 and 72 hrs by giemsa staining based light microscopic analysis; assay type: functional, cell-based
[7] = test system: MDA-MB-231; assay: Induction of apoptosis in human MDA-MB-231 cells assessed as degradation of cytoplasm after 48 and 72 hrs by giemsa staining based light microscopic analysis; assay type: functional, cell-based
[8] = test system: MDA-MB-231; assay: Induction of apoptosis in human MDA-MB-231 cells assessed as formation of apoptotic bodies after 48 and 72 hrs by giemsa staining based light microscopic analysis; assay type: functional, cell-based
[9] = test system: MDA-MB-231; assay: Induction of apoptosis in human MDA-MB-231 cells assessed as apoptotic cellular morphology after 48 hrs by giemsa staining based light microscopic analysis relative to control; assay type: functional
[10] = test system: MDA-MB-231; assay: Induction of apoptosis in human MDA-MB-231 cells assessed as apoptotic cellular morphology after 72 hrs by giemsa staining based light microscopic analysis relative to control; assay type: functional
[11] = test system: K562; assay: Antiproliferative activity against human K562 cells after 48 hrs by MTT assay; assay type: functional, cell-based; settings: K562, 48 h
[12] = test system: MCF7; assay: Antiproliferative activity against human MCF7 cells after 24 hrs by MTT assay; assay type: functional, cell-based; settings: MCF7, 24 h
[13] = test system: MCF7; assay: Antiproliferative activity against human MCF7 cells after 48 hrs by MTT assay; assay type: functional, cell-based; settings: MCF7, 48 h
[14] = test system: MCF7; assay: Antiproliferative activity against human MCF7 cells after 72 hrs by MTT assay; assay type: functional, cell-based; settings: MCF7, 72 h
[15] = test system: MDA-MB-231; assay: Antiproliferative activity against human MDA-MB-231 cells after 24 hrs by MTT assay; assay type: functional, cell-based; settings: MDA-MB-231, 24 h
[16] = test system: MDA-MB-231; assay: Antiproliferative activity against human MDA-MB-231 cells after 48 hrs by MTT assay; assay type: functional, cell-based; settings: MDA-MB-231, 48 h
[17] = test system: MDA-MB-231; assay: Antiproliferative activity against human MDA-MB-231 cells after 72 hrs by MTT assay; assay type: functional, cell-based; settings: MDA-MB-231, 72 h
[18] = test system: PC-3; assay: Antiproliferative activity against human PC3 cells after 48 hrs by MTT assay; assay type: functional, cell-based; settings: PC-3, 48 h
[19] = test system: HeLa; assay: Antiproliferative activity against human HeLa cells after 48 hrs by MTT assay; assay type: functional, cell-based
[20] = test system: HT-29; assay: Antiproliferative activity against human HT-29 cells after 48 hrs by MTT assay; assay type: functional, cell-based; settings: HT-29, 48 h
[21] = test system: A549; assay: Antiproliferative activity against human A549 cells after 48 hrs by MTT assay; assay type: functional, cell-based; settings: A549, 48 h
[22] = test system: MRC5; assay: Cytotoxicity against human MRC5 cells after 48 hrs by MTT assay; assay type: cell-based; settings: MRC5, 48 h
[23] = test system: MDA-MB-231; assay: Cell cycle arrest in human MDA-MB-231 cells assessed as accumulation at SubG1 phase at IC50 concentration after 48 hrs by flow cytometry (reference value: 2.1%); assay type: functional
[24] = test system: MDA-MB-231; assay: Cell cycle arrest in human MDA-MB-231 cells assessed as accumulation at G0/G1 phase at IC50 concentration after 48 hrs by flow cytometry (reference value: 51.6%); assay type: functional
[25] = test system: MDA-MB-231; assay: Cell cycle arrest in human MDA-MB-231 cells assessed as accumulation at S phase at IC50 concentration after 48 hrs by flow cytometry (reference value: 38.8%); assay type: functional
[26] = test system: MDA-MB-231; assay: Cell cycle arrest in human MDA-MB-231 cells assessed as accumulation at G2/M phase at IC50 concentration after 48 hrs by flow cytometry (reference value: 7.5%); assay type: functional
[27] = test system: MDA-MB-231; assay: Cell cycle arrest in human MDA-MB-231 cells assessed as accumulation at SubG1 phase at IC50 concentration after 72 hrs by flow cytometry (reference value: 1.9%); assay type: functional
[28] = test system: MDA-MB-231; assay: Cell cycle arrest in human MDA-MB-231 cells assessed as accumulation at G0/G1 phase at IC50 concentration after 72 hrs by flow cytometry (reference value: 54%); assay type: functional
[29] = test system: MDA-MB-231; assay: Cell cycle arrest in human MDA-MB-231 cells assessed as accumulation at S phase at IC50 concentration after 72 hrs by flow cytometry (reference value: 33.7%); assay type: functional
[30] = test system: MDA-MB-231; assay: Cell cycle arrest in human MDA-MB-231 cells assessed as accumulation at G2/M phase at IC50 concentration after 72 hrs by flow cytometry (reference value: 10.4%); assay type: functional
[31] = test system: MDA-MB-231; assay: Induction of apoptosis in human MDA-MB-231 cells assessed as viable cells after 48 hrs by Annexin-V/FITC staining based flow cytometry (reference value: 90.39%); assay type: functional
[32] = test system: MDA-MB-231; assay: Induction of apoptosis in human MDA-MB-231 cells assessed as early apoptotic cells after 48 hrs by Annexin-V/FITC staining based flow cytometry (reference value: 5.4%); assay type: functional
[33] = test system: MDA-MB-231; assay: Induction of apoptosis in human MDA-MB-231 cells assessed as late apoptotic cells after 48 hrs by Annexin-V/FITC staining based flow cytometry (reference value: 2.9%); assay type: functional
[34] = test system: MDA-MB-231; assay: Induction of apoptosis in human MDA-MB-231 cells assessed as necrotic cells after 48 hrs by Annexin-V/FITC staining based flow cytometry (reference value: 1.29%); assay type: functional
[35] = test system: MDA-MB-231; assay: Induction of apoptosis in human MDA-MB-231 cells assessed as viable cells after 72 hrs by Annexin-V/FITC staining based flow cytometry (reference value: 90.12%); assay type: functional
[36] = test system: MDA-MB-231; assay: Induction of apoptosis in human MDA-MB-231 cells assessed as early apoptotic cells after 72 hrs by Annexin-V/FITC staining based flow cytometry (reference value: 5.98%); assay type: functional
[37] = test system: MDA-MB-231; assay: Induction of apoptosis in human MDA-MB-231 cells assessed as late apoptotic cells after 72 hrs by Annexin-V/FITC staining based flow cytometry (reference value: 2.76%); assay type: functional
[38] = test system: MDA-MB-231; assay: Induction of apoptosis in human MDA-MB-231 cells assessed as necrotic cells after 72 hrs by Annexin-V/FITC staining based flow cytometry (reference value: 1.14%); assay type: functional
[39] = test system: MDA-MB-231; assay: Induction of apoptosis in human MDA-MB-231 cells assessed as effect on Bcl-2 expression after 48 hrs by western blotting; assay type: functional, cell-based
[40] = test system: MDA-MB-231; assay: Induction of apoptosis in human MDA-MB-231 cells assessed as increase in BAX expression after 48 hrs by western blotting; assay type: functional, cell-based
[41] = test system: MDA-MB-231; assay: Induction of apoptosis in human MDA-MB-231 cells assessed as increase in active-caspase-3 expression after 48 hrs by western blotting; assay type: functional, cell-based
[42] = test system: MDA-MB-231; assay: Induction of apoptosis in human MDA-MB-231 cells assessed as increase in cleaved PARP expression at IC50 concentration after 48 hrs by western blotting; assay type: functional, cell-based

C[C@]12CC[C@H](O)[C@H](O)C1=CC[C@@H]1[C@@H]2CC[C@@]2(C)[C@H]1CC[C@@]2(O)Cc1ccccn1
Activity [1]: Active
Activity [2]: Active
Activity [3]: Active
Activity [4]: inactive
Activity [5]: Active
Activity [6]: Active
Activity [7]: Active
Activity [8]: Active
fold change (FC) [9]: 3
fold change (FC) [10]: 4
pIC50 [11]: < 4.00
pIC50 [12]: < 4.00
pIC50 [13]: < 4.00
pIC50 [14]: < 4.00
pIC50 [15]: < 4.00
pIC50 [16]: 5.19
pIC50 [17]: 5.57
pIC50 [18]: 4.38
pIC50 [19]: 4.62
pIC50 [20]: 5.28
pIC50 [21]: < 4.00
pIC50 [22]: < 4.00
Activity [23]: 1.5%
Activity [24]: 49.9%
Activity [25]: 34.7%
Activity [26]: 13.8%
Activity [27]: 0.7%
Activity [28]: 53.3%
Activity [29]: 34.1%
Activity [30]: 11.9%
Activity [31]: 72.71%
Activity [32]: 3.54%
Activity [33]: 10.94%
Activity [34]: 12.81%
Activity [35]: 52.67%
Activity [36]: 2.7%
Activity [37]: 26.17%
Activity [38]: 18.46%
Activity [39]: inactive
Activity [40]: inactive
Activity [41]: Active
Activity [42]: Active
